Measurements taken from US20210024542A1 (Torcept Therapeutics, Inc., priority 2018, published 2021).

What was measured:
U-87 MG = test: OncoPanel cell proliferation assay, U-87 MG; type: cell-based, human
Method: (§1) Cells were grown in RPMI 1640, 10% FBS, 2 mM L-alanyl-L-glutamine, 1 mM Na pyruvate, or a special medium. Cells were seeded into 384-well plates and incubated in a humidified atmosphere of 5% CO2 at 37° C. Compounds were added the day following cell seeding. At the same time, a time zero untreated cell plate was generated. After a 3-day incubation period, cells were fixed and stained to allow fluorescence imaging of nuclei. Compounds (1 mM stock solutions) were serially diluted in half-log steps from the highest test concentration ([…]), and assayed over 10 concentrations with a maximum assay concentration of 0.1% DMSO. Automated fluorescence microscopy was carried out using a Molecular Devices ImageXpress Micro XL high-content imager, and images were collected with a 4× objective. 16-bit TIFF images were acquired and analyzed with MetaXpress 5.1.0.41 software.
(§2) Cell proliferation was measured by the fluorescence intensity of an incorporated nuclear dye. The output is referred to as the relative cell count, where the measured nuclear intensity is transformed to percent of control (POC) using the following formula: […]
(§3) Cellular response parameters were calculated using nonlinear regression to a sigmoidal single-site dose response model:
(§4) Where y is a response measured at concentration x, A and B are the lower and upper limits of the response, C is the concentration at the response midpoint (EC50), and D is the Hill Slope (Ref. 1).
(§5) EC50 is the test compound concentration at the curve inflection point or half the effective response (parameter C of the fitted curve solution). GI50 is the concentration needed to reduce the observed growth by half (midway between the curve maximum and the time zero value). “Cell Count Activity Area” is an estimate of the integrated area above the curve (Barretina, et al. The Cancer Cell Line Encyclopedia enables predictive modelling of anticancer drug sensitivity. Nature 483: 603-607). […] In rare instances, values <0 or >10 may be observed. […] Curve-fitting, calculations, and report generation was performed using a custom data reduction engine and MathIQ based software (AIM).

G-402 = test: OncoPanel cell proliferation assay, G-402; type: cell-based, human; conditions: G-402, scale 0-10
Method: as §1, §2, §3, §4, §5

SK-NEP-1 = test: OncoPanel cell proliferation assay, SK-NEP-1; conditions: SK-NEP-1, scale 0-10
Method: (§6) Cells were seeded into 384-well plates and incubated in a humidified atmosphere of 5% CO2 at 37° C. Compounds were added the day following cell seeding. At the same time, a time zero untreated cell plate was generated. After a 3-day incubation period, cells were fixed and stained to allow fluorescence imaging of nuclei. Compounds (1 mM stock solutions) were serially diluted in half-log steps from the highest test concentration (1 micromol), and assayed over 10 concentrations with a maximum assay concentration of 0.1% DMSO. Automated fluorescence microscopy was carried out using a Molecular Devices ImageXpress Micro XL high-content imager, and images were collected with a 4× objective. 16-bit TIFF images were acquired and analyzed with MetaXpress 5.1.0.41 software.
(§7) GI50 is the concentration needed to reduce the observed growth by half (midway between the curve maximum and the time zero value). […] In rare instances, values <0 or >10 may be observed. […] Curve-fitting, calculations, and report generation was performed using a custom data reduction engine and MathIQ based software (AIM).

SHP-77 = test: OncoPanel cell proliferation assay, SHP-77
Method: as §6, §7

A101D = test: OncoPanel cell proliferation assay, A101D; type: cell-based, human
Method: as §1, §2, §3, §4, §5

AsPC-1 = test: OncoPanel cell proliferation assay, AsPC-1
Method: as §6, §7

MES-SA = test: OncoPanel cell proliferation assay, MES-SA; type: cell-based, human; conditions: scale 0-10
Method: as §1, §2, §3, §4, §5

NCIH446 = test: OncoPanel cell proliferation assay, NCIH446; type: cell-based, human
Method: as §1, §2, §3, §4, §5

NCI-H510A = test: OncoPanel cell proliferation assay, NCI-H510A; type: cell-based, human
Method: as §1, §2, §3, §4, §5

CHP-212 = test: OncoPanel cell proliferation assay, CHP-212
Method: as §6, §7

CaOV3 = test: OncoPanel cell proliferation assay, CaOV3; type: cell-based, human
Method: as §1, §2, §3, §4, §5

RL95-2 = test: OncoPanel cell proliferation assay, RL95-2; type: cell-based, human
Method: as §1, §2, §3, §4, §5

[1] = Homo sapiens, 72 h, 3-day incubation, read-out: Cell Count IC50

CO[C@H]1C[C@@H]2CC[C@@H](C)[C@@](O)(O2)C(=O)C(=O)N2CCCC[C@H]2C(=O)O[C@H]([C@H](C)C[C@@H]2CC[C@@H](O)[C@H](OC)C2)CC(=O)[C@H](C)/C=C(\C)[C@@H](O)[C@@H](OC)C(=O)[C@H](C)C[C@H](C)/C=C/C=C/C=C/1C [Rapamycin, reference compound]
IC50 (U-87 MG; [1]): > 1000 nM
Cell Count Activity Area (U-87 MG; scale 0-10): 3.79
Cell Count Activity Area (G-402): 4.68
Cell Count Activity Area (SK-NEP-1): 4.22
EC50 (SHP-77; Homo sapiens, SHP77, 72 h, read-out: Cell Count EC50): > 1000 nM
GI50 (SHP-77; Homo sapiens, SHP77, 72 h, read-out: Cell Count GI50): > 1000 nM
IC50 (SHP-77; Homo sapiens, SHP77, 72 h, read-out: Cell Count IC50): > 1000 nM
Cell Count Activity Area (SHP-77; SHP-77, scale 0-10): 1.13
IC50 (A101D; [1]): > 1000 nM
Cell Count Activity Area (A101D; scale 0-10): 2.92
Cell Count Activity Area (AsPC-1; AsPC-1, scale 0-10): 1.48
EC50 (AsPC-1; Homo sapiens, ASPC1, 72 h, read-out: Cell Count EC50): > 1000 nM
GI50 (AsPC-1; Homo sapiens, ASPC1, 72 h, read-out: Cell Count GI50): > 1000 nM
IC50 (AsPC-1; Homo sapiens, ASPC1, 72 h, read-out: Cell Count IC50): > 1000 nM
Cell Count Activity Area (MES-SA): 5.39
EC50 (NCIH446; Homo sapiens, NCI-H446, 72 h, NCIH446, 3-day incubation, read-out: Cell Count EC50): > 1000 nM
IC50 (NCIH446; Homo sapiens, NCI-H446, 72 h, NCIH446, 3-day incubation, read-out: Cell Count IC50): > 1000 nM
Cell Count Activity Area (NCIH446; NCIH446, scale 0-10): 1.69
EC50 (NCI-H510A; Homo sapiens, 72 h, 3-day incubation, read-out: Cell Count EC50): > 1000 nM
GI50 (NCI-H510A; Homo sapiens, 72 h, 3-day incubation, read-out: Cell Count GI50): > 1000 nM
IC50 (NCI-H510A; [1]): > 1000 nM
Cell Count Activity Area (NCI-H510A; scale 0-10): 1.63
Cell Count Activity Area (CHP-212; CHP-212, scale 0-10): 4.13
IC50 (CHP-212; Homo sapiens, CHP-212, 72 h, read-out: Cell Count IC50): > 1000 nM
Cell Count Activity Area (CaOV3; CaOV3, scale 0-10): 2.40
EC50 (CaOV3; Homo sapiens, Caov-3, 72 h, CaOV3, 3-day incubation, read-out: Cell Count EC50): > 1000 nM
GI50 (CaOV3; Homo sapiens, Caov-3, 72 h, CaOV3, 3-day incubation, read-out: Cell Count GI50): > 1000 nM
IC50 (CaOV3; Homo sapiens, Caov-3, 72 h, CaOV3, 3-day incubation, read-out: Cell Count IC50): > 1000 nM
GI50 (RL95-2; Homo sapiens, 72 h, RL95-2, 3-day incubation, read-out: Cell Count GI50): 0.13 nM
IC50 (RL95-2; Homo sapiens, 72 h, RL95-2, 3-day incubation, read-out: Cell Count IC50): > 1000 nM
Cell Count Activity Area (RL95-2; RL95-2, scale 0-10): 4.24
